Measured values taken from article PMC7246765, “Development of a Radiofluorinated Adenosine A2B Receptor Antagonist as Potential Ligand for PET Imaging” (International Journal of Molecular Sciences, 2020).
Where two headings read alike, the source gives them in different places.

What was measured:
[1] = target: T1, human adenosine A2A receptor (Homo sapiens, UniProt P29274); assay: Competitive radioligand binding with [3H]MSX-2, membranes of CHO or HEK cells; details: for Selectivity Ratio Ki(Ax)/Ki(A2B): A2A/A2B: ratio of Ki values
T1 construct: host or cells: CHO or HEK cells
Method: (§1) The binding affinities of 2 and 9 at the four human adenosine receptor subtypes A2B, A2A, A1, and A3, presented in Table 1, were determined in competitive binding assays using appropriate radioligands and membrane preparations of Chinese hamster ovary (CHO) cells or human embryonic kidney (HEK) cells, respectively, recombinantly expressing the corresponding human receptor subtype.
(§2) Membrane preparations of recombinant CHO or HEK (human embryonic kidney) cells expressing the respective human adenosine receptor subtype were obtained according to Borrman et al. or purchased from Perkin Elmer, Germany. Radioligand binding assays using human A1, A2A, A2B and A3 receptors were performed according to Alnouri et al..
[^3H]3-(3-hydroxypropyl)-7-methyl-8-(m-methoxystyryl)-1-propargylxanthine, ([^3H]MSX-2, molar activity: 84 Ci/mmol, 1 nM [29]) for the A2A receptor,
(§3) [^3H](R)-8-ethyl-4-methyl-2-(phenyl)1,4,7,8-tetrahydro-5H-imidazo[2,1-i]purin-5-one ([^3H]PSB-11, molar activity: 53 Ci/mmol, 1 nM [30]) for the A3 receptor. Three separate experiments were performed to determine the Ki values. All data were analyzed with GraphPad Prism, Version 4.1 (GraphPad Inc., La Jolla, CA,USA).

[2] = target: T2, human adenosine A1 receptor (Homo sapiens, UniProt P30542); assay: Competitive radioligand binding with [3H]CCPA, membranes of CHO or HEK cells; details: for Selectivity Ratio Ki(Ax)/Ki(A2B): A1/A2B: ratio of Ki values
T2 construct: host or cells: CHO or HEK cells
T2 sequence (P30542 1-326): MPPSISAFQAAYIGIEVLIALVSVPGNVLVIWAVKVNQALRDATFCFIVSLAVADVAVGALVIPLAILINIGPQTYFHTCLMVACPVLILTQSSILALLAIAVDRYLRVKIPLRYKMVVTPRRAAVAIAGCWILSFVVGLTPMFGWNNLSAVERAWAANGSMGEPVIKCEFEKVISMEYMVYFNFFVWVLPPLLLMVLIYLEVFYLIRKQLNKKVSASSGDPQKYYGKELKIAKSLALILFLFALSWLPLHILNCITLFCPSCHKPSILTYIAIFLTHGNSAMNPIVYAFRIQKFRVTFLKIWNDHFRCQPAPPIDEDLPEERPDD
Method: as §1, §2
[^3H]2-Chloro-N^6cyclopentyladenosine ([^3H]CCPA, molar activity: 58 Ci/mmol, 1 nM [28]) for the A1 receptor,
as §3

[3] = target: T3, human adenosine A3 receptor (Homo sapiens, UniProt P0DMS8); assay: Competitive radioligand binding with [3H]PSB-11, membranes of CHO or HEK cells; details: for Selectivity Ratio Ki(Ax)/Ki(A2B): A3/A2B: ratio of Ki values
T3 construct: host or cells: CHO or HEK cells
T3 sequence (P0DMS8 1-318): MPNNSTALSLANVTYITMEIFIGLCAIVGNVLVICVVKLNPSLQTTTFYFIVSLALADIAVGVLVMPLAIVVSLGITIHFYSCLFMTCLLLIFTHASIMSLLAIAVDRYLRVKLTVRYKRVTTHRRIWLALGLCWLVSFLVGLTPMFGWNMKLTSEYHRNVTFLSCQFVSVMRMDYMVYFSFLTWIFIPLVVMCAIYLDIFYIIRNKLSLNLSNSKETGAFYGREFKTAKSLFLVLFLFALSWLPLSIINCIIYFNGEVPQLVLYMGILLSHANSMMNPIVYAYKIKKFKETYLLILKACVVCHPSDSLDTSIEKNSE
Method: as §1, §2, §3

[4] = target: T4, human adenosine A2B receptor (Homo sapiens, UniProt P29275); details: cited from earlier work
T4 construct: host or cells: CHO or HEK cells
T4 sequence (P29275 1-332): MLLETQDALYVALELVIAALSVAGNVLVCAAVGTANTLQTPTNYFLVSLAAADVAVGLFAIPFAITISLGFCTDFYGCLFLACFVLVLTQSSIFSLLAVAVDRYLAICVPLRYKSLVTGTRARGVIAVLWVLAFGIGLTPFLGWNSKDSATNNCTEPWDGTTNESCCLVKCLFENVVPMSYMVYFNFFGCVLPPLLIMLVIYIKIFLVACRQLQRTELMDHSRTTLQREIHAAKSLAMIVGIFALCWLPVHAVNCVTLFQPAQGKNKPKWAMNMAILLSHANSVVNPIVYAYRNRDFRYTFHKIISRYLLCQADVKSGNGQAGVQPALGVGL

[5] = target: T1, human adenosine A2A receptor; details: cited from earlier work
[6] = target: T2, human adenosine A1 receptor; details: cited from earlier work
[7] = target: T3, human adenosine A3 receptor; details: cited from earlier work
[8] = target: T4, human adenosine A2B receptor; assay: Competitive radioligand binding with [3H]PSB-603, membranes of CHO or HEK cells; details: mean ± SEM of three independent assays
Method: as §1, §2
[^3H]8-(4-[4-(4-chlorophenyl)piperazine-1-sulfonyl]phenyl)-1-propyl-2,3,6,7-tetrahydro-1H-purine-2,6-dione ([^3H]PSB-603, molar activity: 73Ci/mmol, 0.3 nM [26]) for the A2B receptor, and
as §3

[9] = set-up: method as in PMID 20138516; details: in vitro, rat hepatic microsomes; cited from earlier work

T1 sequence (P29274 whole entry): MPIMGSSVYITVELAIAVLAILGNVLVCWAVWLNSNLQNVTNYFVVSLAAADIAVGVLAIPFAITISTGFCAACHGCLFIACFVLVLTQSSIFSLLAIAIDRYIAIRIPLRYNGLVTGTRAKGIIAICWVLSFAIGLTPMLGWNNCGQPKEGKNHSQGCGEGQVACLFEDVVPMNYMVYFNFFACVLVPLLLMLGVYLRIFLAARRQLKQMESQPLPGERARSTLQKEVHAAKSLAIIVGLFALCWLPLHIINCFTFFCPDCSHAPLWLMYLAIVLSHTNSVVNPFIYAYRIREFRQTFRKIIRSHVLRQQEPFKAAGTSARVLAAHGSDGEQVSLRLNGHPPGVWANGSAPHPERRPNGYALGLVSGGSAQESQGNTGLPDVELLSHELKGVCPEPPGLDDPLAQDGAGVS

Selectivity Ratio Ki(Ax)/Ki(A2B): A2A/A2B [1]	Selectivity Ratio Ki(Ax)/Ki(A2B): A1/A2B [2]	Selectivity Ratio Ki(Ax)/Ki(A2B): A3/A2B [3]	Ki [8] [nM]	Ki ([1]; [3H]MSX-2, mean ± SEM of three independent assays) [nM]	Ki ([2]; [3H]CCPA, mean ± SEM of three independent assays) [nM]	Ki ([3]; [3H]PSB-11, mean ± SEM of three independent assays) [nM]	SMILES	Ki [4] [nM]	Ki [5] [nM]	Ki [6] [nM]	Ki [7] [nM]	metabolic stability [9]
13	4.5	188	–	–	–	–	O=C(Nc1cnc(-c2ccnc(F)c2)c(-c2ccccc2F)n1)C1CC1 [Compound 1]	4.24 ± 0.04	55 ± 6.1	19 ± 5.2	796 ± 26	–
39	> 400	> 400	2.51 ± 1.1	98.8 ± 28.3	> 1000	> 1000	O=c1[nH]c(=O)c2cc(-c3ccncn3)c(-c3ccco3)nc2[nH]1 [Compound 2, 7-(Furan-2-yl)-6-(pyrimidin-4-yl)pyrido[2,3-d]pyrimidine-2,4-(1H,3H)-dione]	–	–	–	–	high metabolic stability
